Experimental data taken from article PMC12040169 (PLOS Biology, 2025).

test: in vitro; conditions: human, hela cells, % viability

SMILES | viability at 28.5 h, 10 µM [%]
CC(=O)Nc1nnn(CCOc2nonc2C)n1 [CBK027320] | 90.2
O=C1C2C=NNC2C(=O)N1c1ccccc1 (centres unmarked) [CBK022326] | 103
CC1(C)C2C(=O)C(c3ccccn3)=C(N)N2C(C)(C)C1(C)C (centres unmarked) [CBK022153] | 110
COc1ccc(Cl)cc1NC(=S)NCCc1ccc(S(N)(=O)=O)cc1 [CBK267198] | 85.6
CCOc1ccccc1C(=O)Nc1cc(C)c2c(=O)oc3ccccc3c2n1 [CBK291240] | 87.4
O=C(c1cccnc1)N1CCN(S(=O)(=O)c2ccc(F)cc2)CC1 [CBK264210] | 92.8
c1ccc2c(c1)OCC(c1nn3cnnc3s1)O2 (centres unmarked) [CBK269277] | 111
Cc1ccc(NC(=O)/C=C/C(=O)O)c(NC(=O)c2ccccc2)c1 [CBK286563] | 97.3
Cc1csc2c(C3CCCN(C(=O)c4ccccn4)C3)nc(C)n12 (centres unmarked) [CBK284594] | 98.6
COC(=O)CCn1c(=O)c2c(nc3oc(C)c(C)n32)n(C)c1=O [CBK306033] | 109
O=C(Nc1cccc(C(=O)O)c1)/C(=C\c1ccc2c(c1)OCO2)NC(=O)c1ccc(Br)o1 [CBK263720] | 99
O=S(=O)(Nc1cc(F)cc(C(F)(F)F)c1)c1cc2c(N3CCNCC3)nccc2s1 [CBK038102C] | 95.5
CCC(C)C(NC(=O)c1ccccc1NC(=O)c1ccc(OC)cc1)C(=O)O (centres unmarked) [CBK296090] | 91.4
O=C(Cc1cc(Cl)ccc1C(F)(F)F)Nc1ccc2ncccc2c1 [CBK159802] | 94.7
COc1ccccc1N1CCN(CC2CN(c3ccccc3)c3ccccc3O2)CC1 (centres unmarked) [CBK066872C] | 84.7
c1ccc2c3c([nH]c2c1)C12CCN(CC1)C(c1ccncc1)N2CC3 (centres unmarked) [CBK284434] | 88.5
Cc1cnc2c(C(=O)Nc3cccc(CCc4ccncc4)c3)cnn2c1 [CBK285558] | 106
CC(=O)c1ccc(-c2ccc(C(=O)N3CCN(C)CC3)c(N3CCOCC3)n2)s1 [CBK106181] | 96.3
c1cncc(-c2nccnc2NCCCN2CCOCC2)c1 [CBK037286] | 107
Cc1nccn1CCC(=O)NC(c1ccncc1)c1cccs1 (centres unmarked) [CBK281440] | 90.6
c1cncc(COc2ccnc(N3CCCN(CCN4CCOCC4)CC3)n2)c1 [CBK084122] | 88.5
CC(C)(C)OC(=O)N1CCC(c2nc(-c3cccnc3)no2)CC1 [CBK304332] | 84.6

SMILES | viability at 28.5 h, 10 µM [%]
CCCn1c(Nc2nc3ccccc3n2C)nc2ccccc21 [CBK268310] | 85.7
COC(=O)c1c(NC(=S)N2CCN(Cc3c(C)nn(C)c3C)CC2)sc2c1CCC(C)C2 (centres unmarked) [CBK267103] | 94.9
CCOc1ccc(CN(Cc2cc(=O)n3nc(-c4ccccc4)sc3n2)CC(C)C)cc1 [CBK294412] | 103
O=C(OCc1ccc(Cl)cc1)c1ccc2c(c1)C(=O)N(c1cccc([N+](=O)[O-])c1)C2=O [CBK265188] | 109
O=C(Cn1c(NCCCO)nc2ccccc21)c1ccc(Cl)c(Cl)c1 [CBK262905B] | 94.1
CNCCc1ccccc1Sc1ccccc1 [CBK027155G] | 102
CC1CCc2n[nH]c(C(=O)N3CCC(O)C(C)C3)c2C1 (centres unmarked) [CBK283207] | 107
CC(=O)Nc1nc(-c2cccs2)c(-c2cc(C)no2)s1 [CBK284493] | 98.9
O=C(NCC1COc2ccccc2O1)c1ccc(-c2ccc(OC(F)(F)F)cc2)nc1 (centres unmarked) [CBK156214] | 88.3
COc1ccc(C(=O)N[C@H]2CCN3C(=O)c4ccc(Cl)cc4NC(=O)[C@@H]3C2)cc1 [CBK289564] | 84.5
O=C(Nc1ccc(Cc2ccc(NC(=O)c3ccc(Br)cc3)c(O)c2)cc1O)c1ccc(Br)cc1 [CBK262086] | 102
CC(=O)N1C2CCC1CC(O)(Cn1ccc3ccnc(Cl)c31)C2 (centres unmarked) [CBK284868] | 106
CCCn1cnc2sc(C(=O)O)c(C)c2c1=O [CBK287199] | 96
O=C(CN1CCCC1)Nc1sc2c(c1C(=O)NCc1ccccc1)CCCC2 [CBK268926] | 105
C=CCc1ccc(OCC(=O)NN)c(OC)c1 [CBK261831] | 97.5
O=C(COc1ccc(S(=O)(=O)N2CCCCC2)cc1Cl)N1CCc2ccccc2C1 [CBK269510] | 88
CS(=O)(=O)N(CC(=O)Nc1ccccc1C(F)(F)F)Cc1ccc(Cl)cc1 [CBK267854] | 108
CCN1C(=O)C2(CC(=O)N(CCOC)C2=O)c2cc(Cl)ccc21 (centres unmarked) [CBK075244] | 121
Cn1cc(C(=O)N2CCc3ccccc32)c2ccccc21 [CBK200407] | 80.6
Cc1ccc(Cl)cc1-n1cc(-c2ccc(F)cc2F)nn1 [CBK112995] | 89.2
COc1ccc(Cc2c(C)nc3c(C(=O)NCC4COc5ccccc5O4)cnn3c2C)cc1 (centres unmarked) [CBK162179] | 102
C(=C\c1ccccc1)/CNCCCN1CCOCC1 [CBK278195C] | 105
